Assays:
[1] = tested on: MRC-5 cells; assay: TGFβ-stimulated αSMA expression in MRC-5 cells (HTRF); type: cell-based; parameters: key to Significant reduction in αSMA via HTRF compared to TGFβ alone: NS = no statistically significant change in aSMA expression; + = p < 0.05; ++ = p < 0.01; +++ = p < 0.005; ++++ = p < 0.001; details: for Significant reduction in αSMA via HTRF compared to TGFβ alone: TGFβ 1 ng/ml, HGF 0.01 ng/ml, 48 h
Protocol: In this study, pulmonary-derived immortalized fibroblasts, MRC-5 cells, were cultured as a model of the early transition to fibrosis, and αSMA expression was measured using an immunodetection system driven by homogenous time-resolved fluorescence (HTRF) technology. This detection system produces a fluorescent signal in the presence of αSMA in cell lysates. Cells were grown to confluence in 96-well culture plates in complete media, and then transitioned to serum-free media for 2 hours. Next TGFβ (final 1 ng/ml in serum-free media) was added to the cells to stimulate the fibrotic transition. After 2 hours, media containing either HGF or HGF combined with one of the compounds was added to the cells. After incubation for 48 hours, cells were lysed and processed for αSMA HTRF to detect the levels of αSMA expression and compared to TGFβ-stimulated cultures. Statistical analysis consisted of 1-way ANOVA with a Dunnett's multiple comparison's post-test.

[2] = tested on: CFA-stimulated rats; assay: CFA inflammatory pain model, thermal hyperalgesia (Hargreaves method); type: in vivo; parameters: key to Thermal Hyperalgesia, change in sensitivity compared to CFA alone: NS = no statistically significant change in sensitivity compared to CFA alone; + = statistically significant change in sensitivity compared to CFA alone, p < 0.05; details: 0.025 mg/kg PO daily; Day 3, 1 h post-dose
[3] = tested on: CFA-stimulated rats; assay: CFA inflammatory pain model, mechanical allodynia (von Frey test); type: in vivo; parameters: key to Mechanical Allodynia, change in sensitivity compared to CFA alone / Mechanical Allodynia, significant reduction in pain behavior vs CFA alone: NS = no statistically significant change in sensitivity compared to CFA alone; + = statistically significant change in sensitivity compared to CFA alone, p < 0.05
Protocol: (§1) Response to peripheral inflammatory stimulus can be modeled by administering complete Freund's adjuvant (CFA), a suspension of desiccated mycobacterium in paraffin oil and mannide monooleate, by subcutaneous injection into the rat's footpad. The introduction of CFA to peripheral tissues leads to a rapid, sustained, inflammatory reaction in the treated tissue within 24 hours. Subcutaneous administration of CFA in the plantar region of the paw induces inflammatory pain behaviors that persist for at least 8 days. CFA treatment also leads to the accumulation of inflammatory cytokines in paw tissue at the site of injury, which, if unresolved, can lead to formation of fibrotic tissue. The extent of inflammatory response to CFA can be assessed by quantification of inflammatory cytokines in paw skin lysate, and inflammatory pain behaviors by mechanical allodynia (von Frey test) and thermal hyperalgesia (Hargreaves test).
(§2) In one study, Compound 2a was tested for its ability to reduce inflammatory pain behaviors in the CFA inflammation model. On study day 0, […] of CFA was administered subcutaneously in the plantar of the right hind paw. Animals were treated daily with Compound 2a in solution via oral gavage (PO) at doses of 1, 0.1, and 0.025 mg/kg. Treatment began before CFA injection on study day −1 and continued through study day 8.
Mechanical allodynia was measured using the von Frey test. In this test, rats were placed on a wire mesh and a series of filaments designed to deliver probing force ranging from 4 to 26 grams were applied to the mid-plantar surface of the right hind paw. Animals indicated pain response by lifting the probed paw. The minimal force required to elicit the withdrawal response was recorded as the paw withdrawal threshold (PWT). Von Frey testing was performed 1 hour after Compound 2a dosing on study day 1, 3, and 7, and was also tested pre-dosing on day 7. Statistical analysis was performed using a 1-way ANOVA with Tukey post-test. A p-value below 0.05 was considered statistically significant. Control animals stimulated with CFA but treated with only vehicle had high sensitivity to mechanical stimulation compared to normal control animals.
(§3) In another study, Compounds 1a, 5a, and 6a were similarly tested against CFA-induced inflammatory stimulation in the right hind foot for their ability to reduce pain behaviors. This study also included quantification of inflammatory cytokine expression in paw skin lysate. Inflammatory pain stimulation with CFA injection and assessment of mechanical and thermal pain behaviors were performed as described above, with the exception that only post-dose pain behavior testing is reported.
(§4) Intraplantar CFA injection occurred at day 0. Treatment with Compounds 1a, 5a, and 6a occurred at days −2, 1, 3, and 7. At day 8, the rats were terminated and cytokine levels were measured in paw skin and plasma. Tissue from paw bone, joint, and muscle were obtained for H&E staining and analysis. Cytokine levels in test compound-treated animals were compared to CFA-stimulated animals. Analytes included interleukin 4 (IL-4), tumor necrosis factor alpha (TNF-α) and interferon gamma (IFN-γ). Statistical analysis consisted of 1-way ANOVA followed by Dunnett's multiple comparisons post-test. Mechanical allodynia and thermal hyperalgesia were tested 1 hour post-dosing on days 1, 3, and 7. PWT refers to […] paw withdrawal threshold where a higher value corresponds to a higher pain threshold. PWL refers to […] paw withdrawal latency where a higher value corresponds to a higher pain threshold.

[4] = tested on: CFA-stimulated rats; assay: CFA inflammatory pain model, thermal hyperalgesia (Hargreaves method); type: in vivo; parameters: key to Thermal Hyperalgesia, change in sensitivity compared to CFA alone / Thermal Hyperalgesia, significant reduction in pain behavior vs CFA alone: NS = no statistically significant change in sensitivity compared to CFA alone; + = statistically significant change in sensitivity compared to CFA alone, p < 0.05
Protocol: as §1, §2
Thermal hyperalgesia was measured using the Hargreaves method. A temperature ramp was applied to the right hind paw and the paw withdrawal latency (PWL) was recorded as a measure of sensitivity to thermal stimulation. […] Statistical analysis was performed using a 1-way ANOVA with Tukey post-test. A p-value below 0.05 was considered statistically significant.
as §3, §4

[5] = 0.025 mg/kg PO daily, Day 1, 1 h post-dose
[6] = 0.025 mg/kg PO daily, Day 7 post-dose
[7] = 0.025 mg/kg PO daily, Day 7 pre-dose
[8] = 0.1 mg/kg PO daily, Day 1, 1 h post-dose
[9] = 0.1 mg/kg PO daily, Day 3, 1 h post-dose
[10] = 0.1 mg/kg PO daily, Day 7 post-dose
[11] = 0.1 mg/kg PO daily, Day 7 pre-dose
[12] = 1 mg/kg PO daily, Day 1, 1 h post-dose
[13] = 1 mg/kg PO daily, Day 3, 1 h post-dose
[14] = 1 mg/kg PO daily, Day 7 post-dose
[15] = 1 mg/kg PO daily, Day 7 pre-dose

`CCC(C)CN1CC2N(C(=O)c3ccc(OC(F)F)cc3)CCC(=O)N2[C@@H](C)C1=O` (some centres unmarked) [Compound 2a] was tested, and the αSMA expression ([1]; 1 uM, combined with 0.01 ng/ml HGF) was “significantly reduced αSMA”, the “Significant reduction in αSMA via HTRF compared to TGFβ alone” value ([1]; test compound 1 nM) was “NS” and the “Significant reduction in αSMA via HTRF compared to TGFβ alone” value ([1]; test compound 1 μM) was “++++ (++++ = p < 0.001)”. The “Thermal Hyperalgesia, change in sensitivity compared to CFA alone” value (shortened to “Thermal Hyperalgesia, change”) [2] was “NS”, the “Mechanical Allodynia, change in sensitivity compared to CFA alone” value (from here on “Mechanical Allodynia, change”) [3, 5] was “NS” and the “Mechanical Allodynia, change” value ([3]; 0.025 mg/kg PO daily, Day 3, 1 h post-dose) was “NS”. The “Mechanical Allodynia, change” value [3, 6] was “NS”, the “Mechanical Allodynia, change” value [3, 7] was “NS” and the “Mechanical Allodynia, change” value [3, 8] was “NS”. The “Mechanical Allodynia, change” value [3, 9] was “NS”, the “Mechanical Allodynia, change” value [3, 10] was “NS” and the “Mechanical Allodynia, change” value [3, 11] was “NS”. The “Mechanical Allodynia, change” value [3, 12] was “NS”, the “Mechanical Allodynia, change” value [3, 13] was “NS” and the “Mechanical Allodynia, change” value [3, 14] was “+ (+ = statistically significant change in sensitivity compared to CFA alone, p < 0.05)”. For the same compound, the “Mechanical Allodynia, change” value [3, 15] was “NS”, the “mechanical allodynia (paw withdrawal threshold)” value ([3]; 1 mg/kg, study day 7, post-dose testing) was “reduced mechanical allodynia” and the “Thermal Hyperalgesia, change” value [4, 5] was “NS”. The “Thermal Hyperalgesia, change” value [4, 6] was “NS”, the “Thermal Hyperalgesia, change” value [4, 7] was “NS” and the “Thermal Hyperalgesia, change” value [4, 8] was “NS”. For the same compound, the “Thermal Hyperalgesia, change” value [4, 9] was “NS”, the “Thermal Hyperalgesia, change” value [4, 10] was “NS” and the “Thermal Hyperalgesia, change” value [4, 11] was “NS”. The “Thermal Hyperalgesia, change” value [4, 12] was “NS”, the “Thermal Hyperalgesia, change” value [4, 13] was “+ (+ = statistically significant change in sensitivity compared to CFA alone, p < 0.05)” and the “Thermal Hyperalgesia, change” value [4, 14] was “NS”. For the same compound, the “Thermal Hyperalgesia, change” value [4, 15] was “+ (+ = statistically significant change in sensitivity compared to CFA alone, p < 0.05)” and the “thermal sensitivity (paw withdrawal latency)” value ([4]; 1 mg/kg, day 3 and pre-dose testing on day 7) was “reduced thermal sensitivity”.

— US20250288587A1, “Methods of Treating Fibrosis” (Athira Pharma, Inc., priority 2022, published 2025)
